Measured values as given in ChEMBL document CHEMBL3352675, “Synthetic ω-3 epoxyfatty acids as antiproliferative and pro-apoptotic agents in human breast cancer cells” (2014).
Each block holds one molecule with its values, some of them ahead of it. The source made the active and inactive calls. The calls are words filed in the database; no cut-off is given here.

Key:
MDA-MB-231 [1] = test: Antiproliferative activity against human MDA-MB-231 cells assessed as reduction in confluence at 40 uM after 48 hrs by crystal violet staining method; assay type: functional, cell-based
MDA-MB-231 [2] = test: Antiproliferative activity against human MDA-MB-231 cells assessed as reduction in confluence at >40 uM after 120 hrs by crystal violet staining method; assay type: functional, cell-based
MDA-MB-468 [3] = test: Antiproliferative activity against human MDA-MB-468 cells assessed as reduction in confluence at 40 uM after 48 hrs by crystal violet staining method; assay type: functional, cell-based
T47D [4] = test: Antiproliferative activity against human T47D cells assessed as reduction in confluence at 40 uM after 48 hrs by crystal violet staining method; assay type: functional, cell-based
MDA-MB-231 [5] = test: Reduction in ATP production in human MDA-MB-231 cells assessed as ATP level at 40 uM after 48 hrs relative to untreated control; assay type: functional; design: scale not given: the % may be the effect or the level left
T47D [6] = test: Reduction in ATP production in human T47D cells at 40 uM after 48 hrs; assay type: functional, cell-based
MDA-MB-468 [7] = test: Reduction in ATP production in human MDA-MB-468 cells at 40 uM after 48 hrs; assay type: functional, cell-based
MDA-MB-231 [8] = test: Induction of cell cycle arrest in human MDA-MB-231 cells assessed as reduction in cell accumulation at S phase at 40 uM after 48 hrs by flow cytometry; assay type: functional; details: MDA-MB-231, 48 h
MDA-MB-231 [9] = test: Induction of cell cycle arrest in human MDA-MB-231 cells assessed as reduction in cell accumulation at G2/M phase at 40 uM after 48 hrs by flow cytometry; assay type: functional; details: MDA-MB-231, 48 h
MDA-MB-231 [10] = test: Induction of cell cycle arrest in human MDA-MB-231 cells assessed as increase in cell accumulation at […] phase at 40 uM after 48 hrs by flow cytometry; assay type: functional
MDA-MB-231 [11] = test: Reduction in cyclin D1 immunoreactive protein expression in human MDA-MB-231 cells assessed as cyclin D1 level at 40 uM after 48 hrs; assay type: functional
MDA-MB-231 [12] = test: Induction of apoptosis in human MDA-MB-231 cells assessed as increase in caspase 3 activity at 40 uM after 48 hrs; assay type: functional, cell-based
MDA-MB-231 [13] = test: Induction of apoptosis in human MDA-MB-231 cells at 40 uM after 48 hrs by Annexin V-FITC and propidium iodide staining method; assay type: functional
MDA-MB-231 [14] = test: Induction of apoptosis in human MDA-MB-231 cells assessed as viable cells level at 40 uM after 48 hrs by Annexin V-FITC and propidium iodide staining method (reference value: 92.6%); assay type: functional
MDA-MB-231 [15] = test: Induction of apoptosis in human MDA-MB-231 cells assessed as early apoptosis cells level at 40 uM after 48 hrs by Annexin V-FITC and propidium iodide staining method (reference value: 0.5 %); assay type: functional
MDA-MB-231 [16] = test: Induction of apoptosis in human MDA-MB-231 cells assessed as late apoptosis cells level at 40 uM after 48 hrs by Annexin V-FITC and propidium iodide staining method (reference value: 3.7%); assay type: functional
MDA-MB-231 [17] = test: Induction of apoptosis in human MDA-MB-231 cells assessed as necrosis cells level at 40 uM after 48 hrs by Annexin V-FITC and propidium iodide staining method (reference value: 3.3%); assay type: functional
[18] = target: c-Jun N-terminal kinase, JNK (Homo sapiens) (UniProt P45983+P53779+P45984); test: Induction of JNK phosphorylation in human MDA-MB-231 cells at 40 uM after 48 hrs; assay type: cell-based
MDA-MB-231 [19] = test: Antiproliferative activity against human MDA-MB-231 cells assessed as reduction in confluence at 10 uM after 48 hrs by crystal violet staining method; assay type: functional, cell-based
MDA-MB-231 [20] = test: Antiproliferative activity against human MDA-MB-231 cells assessed as reduction in confluence at 10 uM measured over 120 hrs by crystal violet staining method; assay type: functional, cell-based
MDA-MB-468 [21] = test: Antiproliferative activity against human MDA-MB-468 cells assessed as reduction in confluence at 10 uM after 48 hrs by crystal violet staining method; assay type: functional, cell-based
T47D [22] = test: Antiproliferative activity against human T47D cells assessed as reduction in confluence at 10 uM after 48 hrs by crystal violet staining method; assay type: functional, cell-based
T47D [23] = test: Reduction in ATP production in human T47D cells at 1 to 40 uM after 48 to 120 hrs; assay type: functional, cell-based
MDA-MB-468 [24] = test: Reduction in ATP production in human MDA-MB-468 cells at 1 to 40 uM after 48 to 120 hrs; assay type: functional, cell-based
MDA-MB-231 [25] = test: Reduction in cell viability in human MDA-MB-231 cells at 1 to 40 uM after 48 to 120 hrs; assay type: functional, cell-based
MDA-MB-231 [26] = test: Increase in ATP production in human MDA-MB-231 cells at 40 uM after 48 to 120 hrs; assay type: functional, cell-based
MDA-MB-231 [27] = test: Reduction in ATP production in human MDA-MB-231 cells at 40 uM after 120 hrs relative to untreated control; assay type: functional, cell-based
MDA-MB-231 [28] = test: Reduction in ATP production in human MDA-MB-231 cells assessed as ATP level at 40 uM after 120 hrs relative to untreated control; assay type: functional; design: scale not given: the % may be the effect or the level left
MDA-MB-231 [29] = test: Reduction in ATP production in human MDA-MB-231 cells at 10 uM after 48 to 120 hrs in presence of 10 uM AUDA; assay type: functional, cell-based
MDA-MB-231 [30] = test: Reduction in ATP production in human MDA-MB-231 cells at 20 uM after 48 to 120 hrs in presence of 10 uM AUDA; assay type: functional, cell-based
MDA-MB-231 [31] = test: Reduction in cell viability in human MDA-MB-231 cells at 1 to 40 uM after 48 to 120 hrs in presence of JNK inhibitor […]; assay type: functional, cell-based
MDA-MB-231 [32] = test: Induction of apoptosis in human MDA-MB-231 cells assessed as increase in caspase 3 activity at 40 uM after 48 hrs in presence of JNK inhibitor […]; assay type: functional, cell-based
MDA-MB-231 [33] = test: Reduction in cell viability in human MDA-MB-231 cells at 1 to 40 uM after 48 to 120 hrs in presence of JNK gene silencing RNA; assay type: functional, cell-based
MDA-MB-231 [34] = test: Induction of apoptosis in human MDA-MB-231 cells assessed as increase in caspase 3 activity at 40 uM after 48 hrs in presence of JNK gene silencing RNA; assay type: functional, cell-based

Activity [18]: inactive
Structure (SMILES): CCNC(=O)NCCCCCCCCCCCCCCCC(=O)O
inhibition (MDA-MB-231 [1]): inactive
inhibition (MDA-MB-231 [2]): Active
inhibition (MDA-MB-468 [3]): inactive
inhibition (T47D [4]): inactive
Activity (MDA-MB-231 [5]): 72%
Activity (T47D [6]): inactive
Activity (MDA-MB-468 [7]): inactive
inhibition at 40 µM (MDA-MB-231 [8]): 21%
inhibition at 40 µM (MDA-MB-231 [9]): 9%
Activity (MDA-MB-231 [10]): 6%
Activity (MDA-MB-231 [11]): inactive
Activity (MDA-MB-231 [12]): Active
Activity (MDA-MB-231 [13]): inactive
Activity (MDA-MB-231 [14]): 82.6%
Activity (MDA-MB-231 [15]): 1.6%
Activity (MDA-MB-231 [16]): 8.4%
Activity (MDA-MB-231 [17]): 7.3%

Activity [18]: inactive
Structure (SMILES): CCNC(=O)NCCCCCCCCCCCCCCCCC(=O)O
inhibition (MDA-MB-231 [1]): inactive
inhibition (MDA-MB-231 [2]): Active
inhibition (MDA-MB-468 [3]): inactive
inhibition (T47D [4]): inactive
Activity (MDA-MB-231 [5]): 72%
Activity (T47D [6]): inactive
Activity (MDA-MB-468 [7]): inactive
inhibition at 40 µM (MDA-MB-231 [8]): 21%
inhibition at 40 µM (MDA-MB-231 [9]): 9%
Activity (MDA-MB-231 [10]): 6%
Activity (MDA-MB-231 [11]): inactive
Activity (MDA-MB-231 [12]): Active
Activity (MDA-MB-231 [13]): inactive

Activity [18]: Active
Structure (SMILES): CC[C@H]1O[C@H]1CCCCCCCCCCCCCCCCC(=O)O (relative stereo)
inhibition (MDA-MB-231 [19]): Active
inhibition (MDA-MB-231 [20]): Active
inhibition (MDA-MB-468 [21]): Active
inhibition (T47D [22]): inactive
Activity (T47D [23]): inactive
Activity (MDA-MB-468 [24]): inactive
inhibition at 40 µM (MDA-MB-231 [8]): 33%
inhibition at 40 µM (MDA-MB-231 [9]): 30%
Activity (MDA-MB-231 [10]): 12%
Activity (MDA-MB-231 [11]): 24%
Activity (MDA-MB-231 [12]): Active
fold change (FC) (MDA-MB-231 [13]): 5

Structure (SMILES): CC(C)(C)NC(=O)NCCCCCCCCCCCCCCCC(=O)O
Activity (MDA-MB-231 [5]): inactive
Activity (MDA-MB-231 [12]): Active

Structure (SMILES): CCCCCCCC[C@@H]1O[C@@H]1CCCCCCCCCC(=O)O (relative stereo)
Activity (MDA-MB-231 [25]): inactive
Activity (MDA-MB-231 [26]): Active
Activity (MDA-MB-231 [12]): inactive

Structure (SMILES): CCCC(=O)NCCCCCCCCCCCCCCCC(=O)O
Activity (MDA-MB-231 [27]): inactive
Activity (MDA-MB-231 [12]): inactive

Activity [18]: Active
Structure (SMILES): CC[C@@H]1O[C@@H]1CCCCCCCCCCCCCCCC(=O)O (relative stereo)
inhibition (MDA-MB-231 [19]): Active
inhibition (MDA-MB-231 [20]): Active
inhibition (MDA-MB-468 [21]): Active
inhibition (T47D [22]): inactive
Activity (MDA-MB-231 [5]): 45%
Activity (MDA-MB-231 [28]): 3.2%
Activity (MDA-MB-231 [29]): Active
Activity (MDA-MB-231 [30]): inactive
Activity (T47D [23]): Active
Activity (MDA-MB-468 [24]): Active
inhibition at 40 µM (MDA-MB-231 [8]): 49%
inhibition at 40 µM (MDA-MB-231 [9]): 38%
Activity (MDA-MB-231 [10]): 22%
Activity (MDA-MB-231 [11]): 23%
Activity (MDA-MB-231 [12]): Active
fold change (FC) (MDA-MB-231 [13]): 5
Activity (MDA-MB-231 [14]): 27.3%
Activity (MDA-MB-231 [15]): 4.1%
Activity (MDA-MB-231 [16]): 39.2%
Activity (MDA-MB-231 [17]): 29.4%
Activity (MDA-MB-231 [31]): inactive
Activity (MDA-MB-231 [32]): inactive
Activity (MDA-MB-231 [33]): inactive
Activity (MDA-MB-231 [34]): inactive

Structure (SMILES): CCCNC(=O)NCCCCCCCCCCCCCCCC(=O)O
Activity (MDA-MB-231 [5]): inactive
Activity (MDA-MB-231 [12]): inactive

Structure (SMILES): CCCCNC(=O)NCCCCCCCCCCCCCCCC(=O)O
Activity (MDA-MB-231 [5]): inactive
Activity (MDA-MB-231 [12]): Active

Structure (SMILES): CCCCC[C@@H]1O[C@@H]1CCCCCCCCCCCCC(=O)O (relative stereo)
Activity (MDA-MB-231 [25]): inactive
Activity (MDA-MB-231 [12]): inactive

Structure (SMILES): CCNC(=O)OCCCCCCCCCCCCCCCC(=O)O
Activity (MDA-MB-231 [27]): inactive
Activity (MDA-MB-231 [12]): Active

Activity [18]: inactive
Structure (SMILES): CCNC(=O)NCCCCCCCCCCCCCCCCCC(=O)O
inhibition (MDA-MB-231 [1]): inactive
inhibition (MDA-MB-231 [2]): Active
inhibition (MDA-MB-468 [3]): inactive
inhibition (T47D [4]): inactive
Activity (MDA-MB-231 [5]): 72%
Activity (T47D [6]): inactive
Activity (MDA-MB-468 [7]): inactive
inhibition at 40 µM (MDA-MB-231 [8]): 21%
inhibition at 40 µM (MDA-MB-231 [9]): 9%
Activity (MDA-MB-231 [10]): 6%
Activity (MDA-MB-231 [11]): inactive
Activity (MDA-MB-231 [12]): Active
Activity (MDA-MB-231 [13]): inactive

Activity [18]: Active
Structure (SMILES): CC[C@@H]1O[C@@H]1CCCCCCCCCCCCCCCCCC(=O)O (relative stereo)
inhibition (MDA-MB-231 [19]): Active
inhibition (MDA-MB-231 [20]): Active
inhibition (MDA-MB-468 [21]): Active
inhibition (T47D [22]): inactive
Activity (T47D [23]): inactive
Activity (MDA-MB-468 [24]): inactive
inhibition at 40 µM (MDA-MB-231 [8]): 42%
inhibition at 40 µM (MDA-MB-231 [9]): 19%
Activity (MDA-MB-231 [10]): 15%
Activity (MDA-MB-231 [11]): 47%
Activity (MDA-MB-231 [12]): inactive
Activity (MDA-MB-231 [13]): inactive
